In US20240008478A1, “Composition and Methods for Managing and Controlling Lepidopteran Insects” (priority 2022, published 2024) one finds rate of mating and dead moths recovered data, which are given here for two molecules.

Where a name gives a salt, the structure may show the parent alone.

One assay has as its system H. zea. The following applies: hollow fiber formulation; 12-ha maize field; cited from earlier work.
For the next assay, the system named is moths. Kind of assay: Brazilian cotton field trial, compared with grower's standard methomyl cover spray (dead moth counts). It counts as in vivo, noctuid moths. The following applies: methomyl alone sprayed over the entire crop, grower's standard rate; for 5 days after the application. The procedure: Initial work on products of the present disclosure consisted of a blend of oleoresins designed to mimic the attractive volatiles used by adult noctuids to identify sugar-rich sources of floral nectar. This blend also contains a number of sugar-based and proteic phagostimulants (feeding stimulants) to encourage the target insects to feed on the formulation to full engorgement. When a pesticide is added to this product, these components encourage megadose intake of the incorporated killing agent. This minimizes the risk of sub-lethal exposure, a contributing factor to the development of resistance. To further reduce the risk of resistance, the product may be designed as a tank mix to be blended with a small dose of the user's pesticide of choice just prior to application. This characteristic makes the product an extremely adaptable pest management solution and lends itself well to pesticide rotation programs. The product was originally tested in cotton and soybean fields in South America, where noctuid pests pose a significant economic threat to multiple crops. […]

`CCCC/C=C\CCCCCCCCOC=O` [(Z)-9-tetradecenyl formate]: the rate of mating result with H. zea is reported as “cut in half”.

Turning to `CNC(=O)ON=C(C)SC` [methomyl], the dead moths recovered entry with moths is listed as “no or very few dead moths”.
